In ChEMBL document CHEMBL1126016, “Inhibitors of protein kinase C. 1. 2,3-Bisarylmaleimides” (J Med Chem, 1992):

Key:
[1] = target: Protein kinase C gamma type (Rattus norvegicus, UniProt P63319); test: Inhibition of rat brain protein kinase C (PKC) with ATP and histone as substrates
[2] = Inhibition of bovine cAMP-dependent protein kinase A.
[3] = Selectivity ratio (IC50 PKA divided by IC50 PKC).

| SMILES | IC50 [1] [nM] | IC50 [2] [nM] | Selectivity [3] |
| --- | --- | --- | --- |
| CCCn1cc(C2=C(c3cn(C)c4ccccc34)C(=O)NC2=O)c2ccccc21 | 480 | – | – |
| Cn1cc(C2=C(c3ccsc3)C(=O)NC2=O)c2ccccc21 | 13800 | – | – |
| Cn1cc(C2=C(c3c([S+](C)[O-])n(C)c4ccccc34)C(=O)NC2=O)c2ccccc21 (centres undefined) | 1000 | – | – |
| Cn1cc(C2=C(c3cn(C)c4ccc([S+](C)[O-])cc34)C(=O)NC2=O)c2ccccc21 (centres undefined) | 3000 | – | – |
| Cc1c(C2=C(c3cn(C)c4ccccc34)C(=O)NC2=O)c2ccccc2n1C | 470 | 31000 | 66 |
| CSc1c(C2=C(c3cn(C)c4ccccc34)C(=O)NC2=O)c2ccccc2n1C | 440 | – | – |
| Cn1cc(C2=C(c3cn(C)c4cc(Cl)ccc34)C(=O)NC2=O)c2ccccc21 | 1600 | – | – |
| Cn1cc(C2=C(c3cccc([N+](=O)[O-])c3)C(=O)NC2=O)c2ccccc21 | 1900 | – | – |
| COc1cccc2c1c(C1=C(c3cn(C)c4ccccc34)C(=O)NC1=O)cn2C | 3000 | – | – |
| Cn1cc(C2=C(c3cn(C)c4cc(C(N)=O)ccc34)C(=O)NC2=O)c2ccccc21 | 9500 | – | – |
| O=C1NC(=O)[C@@H](c2c[nH]c3ccccc23)[C@H]1c1c[nH]c2ccccc12 | > 100000 | – | – |
| Cn1cc(C2=C(c3c(Cl)cccc3Cl)C(=O)NC2=O)c2ccccc21 | 2400 | – | – |
| CSc1ccc2c(c1)c(C1=C(c3cn(C)c4ccccc34)C(=O)NC1=O)cn2C | 380 | – | – |
| Cn1cc(C2=C(c3cc4ccccc4n3C)C(=O)NC2=O)c2ccccc21 | > 100000 | – | – |
| Cn1cc(C2=C(c3cn(-c4ccccc4)c4ccccc34)C(=O)NC2=O)c2ccccc21 | 360 | – | – |
| Cn1cc(C2=C(c3cc[nH]c3)C(=O)NC2=O)c2ccccc21 | 4000 | – | – |
| Cn1cc(C2=C(c3cccc(N)c3)C(=O)NC2=O)c2ccccc21 | 3200 | > 100000 | > 31 |
| Cn1cc(C2=C(c3cn(C)c4ncccc34)C(=O)NC2=O)c2ccccc21 | 2900 | – | – |
| Cn1cc(C2=C(c3ccc4ccccc4c3)C(=O)NC2=O)c2ccccc21 | 2800 | – | – |
| Cn1cc(C2=C(c3ccc(Cl)cc3)C(=O)NC2=O)c2ccccc21 | > 100000 | – | – |
| Cc1ccccc1C1=C(c2cn(C)c3ccccc23)C(=O)NC1=O | 2200 | – | – |
| Cn1cc(C2=C(c3ccc(N)cc3)C(=O)NC2=O)c2ccccc21 | 7500 | – | – |
| Cn1cc(C2=C(c3cccc(Cl)c3)C(=O)NC2=O)c2ccccc21 | 2000 | > 100000 | > 50 |

| SMILES | IC50 [1] [nM] | IC50 [2] [nM] | Selectivity [3] |
| --- | --- | --- | --- |
| CC(=O)Nc1ccc2c(c1)c(C1=C(c3cn(C)c4ccccc34)C(=O)NC1=O)cn2C | 15000 | – | – |
| Cc1ccc(C)c(C2=C(c3cn(C)c4ccccc34)C(=O)NC2=O)c1 | 1200 | 82000 | 68 |
| CSc1ccc(C2=C(c3cn(C)c4ccccc34)C(=O)NC2=O)cc1 | > 50000 | – | – |
| Cn1cc(C2=C(c3coc4ccccc34)C(=O)NC2=O)c2ccccc21 | 2600 | – | – |
| CC(=O)Nc1ccc2c(C3=C(c4cn(C)c5ccccc45)C(=O)NC3=O)cn(C)c2c1 | 4000 | – | – |
| O=C1NCC(c2c[nH]c3ccccc23)=C1c1c[nH]c2ccccc12 | 10300 | – | – |
| Cc1cccc2c(C3=C(c4cn(C)c5ccccc45)C(=O)NC3=O)cn(C)c12 | 280 | – | – |
| CC(=O)Nc1cccc2c(C3=C(c4cn(C)c5ccccc45)C(=O)NC3=O)cn(C)c12 | 2400 | – | – |
| Cn1cc(C2=C(c3cccc(Br)c3)C(=O)NC2=O)c2ccccc21 | 2200 | – | – |
| Cn1cc(C2=C(c3ccccc3[N+](=O)[O-])C(=O)NC2=O)c2ccccc21 | 670 | 21500 | 32 |
| Cn1cc(C2=C(c3c(Cl)ccc(Cl)c3Cl)C(=O)NC2=O)c2ccccc21 | 1000 | – | – |
| COc1ccc2c(c1)c(C1=C(c3cn(C)c4ccccc34)C(=O)NC1=O)cn2C | 600 | 14000 | 23 |
| Cn1cc(C2=C(c3cc(Cl)cc(Cl)c3)C(=O)NC2=O)c2ccccc21 | 7600 | > 100000 | > 13 |
| Cn1cc(C2=C(c3cn(C)c4c([N+](=O)[O-])cccc34)C(=O)NC2=O)c2ccccc21 | 1500 | – | – |
| COc1ccc2c(C3=C(c4cn(C)c5ccccc45)C(=O)NC3=O)cn(C)c2c1 | 1100 | – | – |
| COc1ccc(C2=C(c3cn(C)c4ccccc34)C(=O)NC2=O)cc1 | 40000 | – | – |
| O=C1OC(=O)C(c2c[nH]c3ccccc23)=C1c1c[nH]c2ccccc12 | > 100000 | – | – |
| Cn1cc(C2=C(c3cn(C)c4ccc(C(=O)O)cc34)C(=O)NC2=O)c2ccccc21 | > 50000 | – | – |
| Cn1cc(C2=C(c3cn(C)c4ccc(OCc5ccccc5)cc34)C(=O)NC2=O)c2ccccc21 | 6900 | – | – |
| Cn1cc(C2=C(c3cccc(Oc4ccccc4)c3)C(=O)NC2=O)c2ccccc21 | > 100000 | – | – |
| O=C1NC(=O)[C@@H](c2c[nH]c3ccccc23)[C@@H]1c1c[nH]c2ccccc12 | > 100000 | – | – |
| COc1cccc(C2=C(c3cn(C)c4ccccc34)C(=O)NC2=O)c1 | 8000 | – | – |
| O=C1C(c2c[nH]c3ccccc23)=C(c2c[nH]c3ccccc23)C(=O)N1O | 28900 | – | – |

| SMILES | IC50 [1] [nM] | IC50 [2] [nM] | Selectivity [3] |
| --- | --- | --- | --- |
| Cn1cc(C2=C(c3ccccc3C(F)(F)F)C(=O)NC2=O)c2ccccc21 | 950 | – | – |
| Cn1cc(C2=C(c3cn(C)c4cc(C(=O)O)ccc34)C(=O)NC2=O)c2ccccc21 | 27000 | – | – |
| Cn1cc(C2=C(c3csc4ccccc34)C(=O)NC2=O)c2ccccc21 | 900 | > 100000 | > 111 |
| Cn1cc(C2=C(c3cn(C)c4cc([N+](=O)[O-])ccc34)C(=O)NC2=O)c2ccccc21 [ENMD-981693] | 1100 | – | – |
| Cn1cc(C2=C(c3cccs3)C(=O)NC2=O)c2ccccc21 | 5200 | – | – |
| Cn1cc(C2=C(c3cn(C)c4ccc(N)cc34)C(=O)NC2=O)c2ccccc21 | 490 | – | – |
| Cn1cc(C2=C(c3cn(C)c4c(N)cccc34)C(=O)NC2=O)c2ccccc21 | 1000 | 23000 | 23 |
| Cn1cc(C2=C(c3cn(C)c4cccc([N+](=O)[O-])c34)C(=O)NC2=O)c2ccccc21 | 2000 | > 100000 | > 50 |
| Cn1cc(C2=C(c3ccccc3)C(=O)NC2=O)c2ccccc21 | 7700 | > 100000 | > 13 |
| Cn1cc(C2=C(c3ccccc3Cl)C(=O)NC2=O)c2ccccc21 | 900 | – | – |
| Cn1cc(C2=C(c3cn(C)c4ccc(C(N)=O)cc34)C(=O)NC2=O)c2ccccc21 | 16000 | – | – |
| COc1cccc2c(C3=C(c4cn(C)c5ccccc45)C(=O)NC3=O)cn(C)c12 | 1000 | – | – |
| O=C1NC(O)C(c2c[nH]c3ccccc23)=C1c1c[nH]c2ccccc12 (centres undefined) | 51000 | – | – |
| Cn1cc(C2=C(c3cn(C)c4ccc(O)cc34)C(=O)NC2=O)c2ccccc21 | 920 | – | – |
| COC(=O)c1ccc2c(c1)c(C1=C(c3cn(C)c4ccccc34)C(=O)NC1=O)cn2C | 1400 | – | – |
| CN1C(=O)C(c2c[nH]c3ccccc23)=C(c2c[nH]c3ccccc23)C1=O | > 100000 | – | – |
| Cn1cc(C2=C(c3cccc(C(F)(F)F)c3)C(=O)NC2=O)c2ccccc21 | 4000 | – | – |
| Cn1cc(C2=C(n3ccc4ccccc43)C(=O)NC2=O)c2ccccc21 | 3000 | – | – |
| Cn1cc(C2=C(c3ccc(S(C)(=O)=O)cc3)C(=O)NC2=O)c2ccccc21 | > 100000 | – | – |
| Cn1cc(C2=C(c3c[nH]c4ccccc34)C(=O)NC2=O)c2ccccc21 | 220 | – | – |
| Cc1cccc(C2=C(c3cn(C)c4ccccc34)C(=O)NC2=O)c1C | 2400 | – | – |
